Experimental findings from patent US10919916B2, “Boron-containing small molecules” (Bill & Melinda Gates Foundation, priority 2016, dated 2021) are described below.

≈ marks a conversion by molar mass, not a printed value. Read-outs that look alike come from different tables or passages of the source. Some results are limits rather than exact numbers.

Test [1] has as its system Staphylococcus aureus, MRSA (ATCC 33591). Briefly: Antibacterial MIC assay (microbroth dilution, CLSI). Format: cell-based. To be noted: read-out: MIC Staphylococcus aureus, MRSA (ATCC 33591). The essentials: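 Compound 2-fold dilution series tested against 5×10^5 CFU/mL bacteria prepared from 0.5 McFarland saline suspensions of overnight colonies. Medium was cation-adjusted Mueller-Hinton broth, supplemented with 3% lysed horse blood for the fastidious pneumococcus. Protocol followed CLSI M07-A10 and M100-S25.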

Test [2] has as its system Streptococcus pneumoniae (ATCC 49619). The test is described as above. Format: cell-based. Summed up:
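S. pneumoniae at 5×10^5 CFU/mL (from 0.5 McFarland saline suspension) was tested against 2-fold serial compound dilutions in cation-adjusted Mueller-Hinton broth plus 3% lysed horse blood, per CLSI M07-A10/M100-S25 microdilution guidelines.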

[3] abbreviates: microbroth dilution, cation-adjusted Mueller-Hinton broth, 35° C. for 16-20 hours.
Where [4] appears, read: ATCC49619, microbroth dilution, 3% lysed horse blood, 35° C. for 16-20 hours, read-out: MIC Streptococcus pneumoniae (ATCC 49619).
The mark [5] stands for this setting: ATCC49619, read-out: MIC Streptococcus pneumoniae (ATCC 49619).

Take `C=C[C@]1(C)C[C@@H](OC(=O)COc2ccc3c(c2)B(O)OCC3)[C@]2(C)[C@H](C)CC[C@]3(CCC(=O)[C@H]32)[C@@H](C)[C@@H]1O` [Compound 69, (3aR,4R,5R,7S,8S,9R,9aS,12R)-8-hydroxy-4,7,9,12-tetramethyl-3-oxo-7-vinyldecahydro-4,9a-propanocyclopenta[8]annulen-5-yl 2-((1-hydroxy-3,4-dihydro-1H-benzo[c][1,2]oxaborinin-7-yl)oxy)acetate]: the MIC in test [1] (setting [3]) and in test [2] (setting [4]) was less than 0.25 µg/mL throughout.
Consider `C=C[C@]1(C)C[C@@H](OC(=O)COc2ccc3c(c2)B(O)N(C(=O)OC(C)(C)C)N=C3)[C@]2(C)[C@H](C)CC[C@]3(CCC(=O)[C@H]32)[C@@H](C)[C@@H]1O` [Compound 71, tert-butyl 1-hydroxy-7-(2-(((3aR,4R,5R,7S,8S,9R,9aS,12R)-8-hydroxy-4,7,9,12-tetramethyl-3-oxo-7-vinyldecahydro-4,9a-propanocyclopenta[8]annulen-5-yl)oxy)-2-oxoethoxy)benzo[d][1,2,3]diazaborinine-2(1H)-carboxylate], for which the MIC in test [1] and in test [2] (setting [5]) was less than 0.25 µg/mL throughout.
On to `C=C[C@]1(C)C[C@@H](OC(=O)COc2ccc3c(c2)B(O)NN=C3)[C@]2(C)[C@H](C)CC[C@]3(CCC(=O)[C@H]32)[C@@H](C)[C@@H]1O` [Compound 72, (3aR,4R,5R,7S,8S,9R,9aS,12R)-8-hydroxy-4,7,9,12-tetramethyl-3-oxo-7-vinyldecahydro-4,9a-propanocyclopenta[8]annulen-5-yl 2-((1-hydroxy-1,2-dihydrobenzo[d][1,2,3]diazaborinin-7-yl)oxy)acetate], for which the MIC in test [1] and in test [2] (setting [5]) was less than 0.25 µg/mL each time.
Consider `C=C[C@]1(C)C[C@@H](OC(=O)COc2ccc3c(c2)B(O)N(S(C)(=O)=O)N=C3)[C@]2(C)[C@H](C)CC[C@]3(CCC(=O)[C@H]32)[C@@H](C)[C@@H]1O` [Compound 75, (3aR,4R,5R,7S,8S,9R,9aS,12R)-8-hydroxy-4,7,9,12-tetramethyl-3-oxo-7-vinyldecahydro-4,9a-propanocyclopenta[8]annulen-5-yl 2-((1-hydroxy-2-(methylsulfonyl)-1,2-dihydrobenzo[d][1,2,3]diazaborinin-7-yl)oxy)acetate], for which the MIC in test [1] was less than 0.25 µg/mL; in test [2] (setting [5]), 0.5 to 2 µg/mL (≈ 0.833 to 3.33 µM).
On the same counts, the results for `C=C[C@]1(C)C[C@@H](OC(=O)COc2ccc3c(c2F)B(O)N(S(C)(=O)=O)N=C3)[C@]2(C)[C@H](C)CC[C@]3(CCC(=O)[C@H]32)[C@@H](C)[C@@H]1O` [Compound 80, (3aR,4R,5R,7S,8S,9R,9aS,12R)-8-hydroxy-4,7,9,12-tetramethyl-3-oxo-7-vinyldecahydro-4,9a-propanocyclopenta[8]annulen-5-yl 2-((8-fluoro-1-hydroxy-2-(methylsulfonyl)-1,2-dihydrobenzo[d][1,2,3]diazaborinin-7-yl)oxy)acetate] are less than 0.25 µg/mL and 0.5 to 2 µg/mL (≈ 0.808 to 3.23 µM).
With `C=C[C@]1(C)C[C@@H](OC(=O)COc2ccc3c(c2)B(O)N(C)N=C3)[C@]2(C)[C@H](C)CC[C@]3(CCC(=O)[C@H]32)C[C@@H]1O` [Compound 83, (3aR,4R,5R,7S,8S,9aS,12R)-8-hydroxy-4,7,12-trimethyl-3-oxo-7-vinyldecahydro-4,9a-propanocyclopenta[8]annulen-5-yl 2-((1-hydroxy-2-methyl-1,2-dihydrobenzo[d][1,2,3]diazaborinin-7-yl)oxy)acetate], the minimum inhibitory concentration (MIC) in test [1] (setting [3]) and in test [2] (setting [4]) was less than 0.25 µg/mL throughout.
For the molecule `C=C[C@]1(C)C[C@@H](OC(=O)COc2ccc3c(c2F)B(O)N(C)N=C3)[C@]2(C)[C@H](C)CC[C@]3(CCC(=O)[C@H]32)[C@@H](C)[C@@H]1O` [Compound 85, (3aR,4R,5R,7S,8S,9R,9aS,12R)-8-hydroxy-4,7,9,12-tetramethyl-3-oxo-7-vinyldecahydro-4,9a-propanocyclopenta[8]annulen-5-yl 2-((8-fluoro-1-hydroxy-2-methyl-1,2-dihydrobenzo[d][1,2,3]diazaborinin-7-yl)oxy)acetate], the MIC in test [1] and in test [2] (setting [5]) was less than 0.25 µg/mL each time.
In the case of `C=C[C@]1(C)C[C@@H](OC(=O)COc2ccc3c(c2)B(O)N(C(C)=O)N=C3)[C@]2(C)[C@H](C)CC[C@]3(CCC(=O)[C@H]32)[C@@H](C)[C@@H]1O` [Compound 87, (3aR,4R,5R,7S,8S,9R,9aS,12R)-8-hydroxy-4,7,9,12-tetramethyl-3-oxo-7-vinyldecahydro-4,9a-propanocyclopenta[8]annulen-5-yl 2-((2-acetyl-1-hydroxy-1,2-dihydrobenzo[d][1,2,3]diazaborinin-7-yl)oxy)acetate], the MIC in test [1] and in test [2] (setting [5]) was less than 0.25 µg/mL each time.
With `C=C[C@]1(C)C[C@@H](OC(=O)COc2ccc3c(c2F)B(O)N(C(C)=O)N=C3)[C@]2(C)[C@H](C)CC[C@]3(CCC(=O)[C@H]32)[C@@H](C)[C@@H]1O` [Compound 89, (3aR,4R,5R,7S,8S,9R,9aS,12R)-8-hydroxy-4,7,9,12-tetramethyl-3-oxo-7-vinyldecahydro-4,9a-propanocyclopenta[8]annulen-5-yl 2-((2-acetyl-8-fluoro-1-hydroxy-1,2-dihydrobenzo[d][1,2,3]diazaborinin-7-yl)oxy)acetate], the MIC in test [1] and in test [2] (setting [5]) was less than 0.25 µg/mL each time.
Turning to `C=C[C@]1(C)C[C@@H](OC(=O)COc2ccc3c(c2)B(O)N(C(=O)OC)N=C3)[C@]2(C)[C@H](C)CC[C@]3(CCC(=O)[C@H]32)[C@@H](C)[C@@H]1O` [Compound 91, Methyl 1-hydroxy-7-(2-(((3aR,4R,5R,7S,8S,9R,9aS,12R)-8-hydroxy-4,7,9,12-tetramethyl-3-oxo-7-vinyldecahydro-4,9a-propanocyclopenta[8]annulen-5-yl)oxy)-2-oxoethoxy)benzo[d][1,2,3]diazaborinine-2(1H)-carboxylate], the MIC in test [1] was less than 0.25 µg/mL; in test [2] (setting [5]) it was 0.5 to 2 µg/mL (≈ 0.861 to 3.45 µM).
Take `C=C[C@]1(C)C[C@@H](OC(=O)COc2ccc3c(c2F)B(O)N(C(=O)OC)N=C3)[C@]2(C)[C@H](C)CC[C@]3(CCC(=O)[C@H]32)[C@@H](C)[C@@H]1O` [Compound 93, Methyl 8-fluoro-1-hydroxy-7-(2-(((3aR,4R,5R,7S,8S,9R,9aS,12R)-8-hydroxy-4,7,9,12-tetramethyl-3-oxo-7-vinyldecahydro-4,9a-propanocyclopenta[8]annulen-5-yl)oxy)-2-oxoethoxy)benzo[d][1,2,3]diazaborinine-2(1H)-carboxylate]: the minimum inhibitory concentration (MIC) was less than 0.25 µg/mL in test [1] and 0.5 to 2 µg/mL (≈ 0.835 to 3.34 µM) in test [2] (setting [5]).
For `C=C[C@]1(C)C[C@@H](OC(=O)COc2ccc3c(c2C)B(O)N(C(=O)OC)N=C3)[C@]2(C)[C@H](C)CC[C@]3(CCC(=O)[C@H]32)[C@@H](C)[C@@H]1O` [Compound 94, Methyl 1-hydroxy-7-(2-(((3aR,4R,5R,7S,8S,9R,9aS,12R)-8-hydroxy-4,7,9,12-tetramethyl-3-oxo-7-vinyldecahydro-4,9a-propanocyclopenta[8]annulen-5-yl)oxy)-2-oxoethoxy)-8-methylbenzo[d][1,2,3]diazaborinine-2(1H)-carboxylate], the MIC in test [1] was less than 0.25 µg/mL; in test [2] (setting [5]) it was 0.5 to 2 µg/mL (≈ 0.841 to 3.36 µM).
